Laboratory results: patent US6596854B2, “Isolated nucleic acid molecule encoding a variant human eukaryotic Intiation Factor 4E protein” (Emory University, priority 1996, dated 2003)
“Also recorded” adds a separate entry of the source.

Assays:
[1] = target: T1, eIF-4E (Homo sapiens, UniProt P06730); assay: Photoaffinity labeling of eIF-4E with labeled GTP analog; type: binding; settings: competition and saturation
T1 construct: made in house; host or cells: E. coli BL21(DE3), pET-3d
Excerpt: Studies on the binding site of eIF-4E have defined a sequence of amino acids, involved in binding m^7G-RNA extending approximately from positions 112-123, numbering from the translation start site. The region of amino acids involved in the binding of eIF-4E to m^7G-RNA was identified using photoaffinity labeling with a labeled analog, [γ-^32P] 8-N3GTP. [Jayaram, B. et al. (1994) J. Biol. Chem. 269:3233-3242; Shoemaker, M. T. et al. (1993) J. Biol. Chem. 32:1883-1890; Salvucci, M. E. et al. (1992) Biochemistry 31:4479-4487]. […] The analog binding to eIF-4E was rendered irreversible by a photo-chemical reaction and a tryptic peptide bearing the analog label was isolated by aluminum-III chelate chromatography and reverse phase HPLC. Once the binding region peptide was identified, it was then possible to employ alanine-scanning mutations to determine the contribution of specific amino acid residues to the binding, and to generate modified eIF-4E proteins with altered binding affinities. Modified eIF-4E analog proteins having either increased or decreased binding affinities have been made. […] Enhanced binding affinity can lead to increased capped RNA stability and increased duration of expression. Decreased binding affinity can be of value where sensitivity to regulatory influences is desired. […]

[2] = system: translation of globin mRNA; assay: Cell-free translation in eIF-4E-depleted rabbit reticulocyte lysates; type: biochemical
Protocol: Translational activity of eIF-4E variants: The ability of eIF-4E variants to initiate translation was examined in rabbit reticulocyte lysates which were depleted of endogenous eIF-4E by m^7GTP-Sepharose chromatography [Svitkin Y. V. et al. (1996) EMBO J. 15:7147-7155]. Western blotting analysis using anti-eIF-4E antibodies detected no eIF-4E in lysates after chromatography. […] The relative abilities of eIF-4E variants to restore globin mRNA translation were tested for all variants except W113A.
Cell-free translations: Nuclease-treated rabbit reticulocyte lysates (Promega) were depleted of endogenous eIF-4E by chromatography on m^7GTP-Sepharose according to the previously described protocol (Svitkin et al. 1996, supra). Aliquots of eIF-4E-depleted lysates were stored in liquid nitrogen vapor. eIF-4E depletion was verified by Western blotting analysis (data not shown). Cell-free translations were performed at 30° C. as described in detail in the Promega technical manual. […] In the case of L117A, which was not highly purified, a sufficient quantity of the preparation was added to approximate 75 ng of L117A. […] Dried filter papers were placed in vials with scintillation liquid and [^35S]methionine incorporated into protein was quantitated by liquid scintillation spectrometry.

[3] = target: m^7GTP (mRNA cap structure); assay: Fluorescence quenching of intrinsic tryptophan of eIF-4E upon m^7GTP binding
Protocol: FIGS. 4A and 4B. […] The fluorescence intensity of recombinant human eIF-4E binding to m^7GTP as a function of m^7GTP concentration was measured. All solutions were prepared in buffer A at pH 7.6, 25° C. and the concentration of eIF-4E was 1 μM. An excitation wave length of 280 nm was used to monitor the fluorescence intensity at 330 nm.
Fluorescence measurements were made at 25° C. on a SPEX Fluorolog-T2 spectrofluorometer equipped with a high intensity (450 w) xenon arc lamp. An excitation wave length of 280 nm was used to monitor the tryptophan fluorescence emission of recombinant eIF-4E at 330 nm. Excitation and emission slit widths of 1.4 and 2.0 mm respectively were used and a 1.0 cm sample cell pathlength was employed. The buffer used for all fluorescence measurements was 20 mM HEPES at pH 7.6 and 1 mM DTT (designated Buffer A in FIG. 4). The steady state data were collected and analyzed as described previously [Carberry, S. E. et al. (1989) Biochemistry 28:8078-8083; Carberry, S. E. et al. (1990) Biochemistry 29:3337-3341. An excitation wavelength of 289 nm was used to monitor the tryptophan fluorescence emission of the proteins. Excitation and emission slit widths of 1.5 mm and 2.0 mm respectively were used and cell path length was 1.0 cm.
The preparation of large quantities of recombinant eIF-4E variants allowed us to directly determine the Kd of binding to the mRNA cap structure. Quantitation was performed by measuring the fluorescence quenching of intrinsic tryptophan residues in eIF-4E upon m^7GTP binding at 25≅ C. (Example 3). […] This is possibly a consequence of a lower stability of these variants at the higher temperature in the fluorescence quenching assay.

[4] = type: physicochemical, E. coli
Protocol: Purification was carried out essentially as described by Hagedorn, et al. (1997) Protein Expression and Purif. 9:53-60, which is incorporated herein by reference. BL21(DE3) cells expressing human eIF-4E were grown in M9ZB media with ampicillin to an OD600 of 0.6-0.7 at which time cultures were induced with 0.4 mM IPTG [Studier, F. W. et al. (1990) supra]. […] Culture media was centrifuged at 500×g for 15 min, and E. coli pellets were suspended in 3 ml of 50 mM Tris-HCl pH 8.0, 100 mM KCl, 1 mM EDTA, 1 mM DTT, 1 mM PMSF, and 0.1 mg/ml lysozyme per gram wet weight. Samples were stirred intermittently on ice for 15 min and sonicated. Triton X-100 was added to a final concentration of 0.1%. The samples were mixed for 15 min at 4° C. and centrifuged at 15,000 rpm in a Sorvall SS-34 rotor for 20 min. Supernatants were used as starting material for subsequent chromatography purification steps.
In order to assess the solubility of each variant, cells were lysed and centrifuged as described supra. Supernatants prepared from equivalent wet weights of cells were analyzed by SDS-PAGE and Western blotting with anti-eIF-4E antibodies. Supernatants from all variants contained soluble eIF-4E. […] Except for the W113A and L117A variants, no major differences in solubility were observed among the other alanine variants studied.

T1 sequence (P06730 whole entry): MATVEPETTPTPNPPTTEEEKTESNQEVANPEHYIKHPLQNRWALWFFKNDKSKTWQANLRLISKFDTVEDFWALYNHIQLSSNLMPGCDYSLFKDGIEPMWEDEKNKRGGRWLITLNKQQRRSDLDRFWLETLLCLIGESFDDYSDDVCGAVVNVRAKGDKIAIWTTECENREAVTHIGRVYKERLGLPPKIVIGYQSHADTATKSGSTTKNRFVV

Question: Which “binding of analog to eIF-4E” value [1] does the source give for `[N-]=[N+]=Nc1nc2c(=O)[nH]c(N)nc2n1C1OC(COP(=O)(O)OP(=O)(O)O[32P](=O)(O)O)C(O)C1O` (centres unmarked) [[γ-^32P] 8-N3GTP] here?
Answer: bind to eIF-4E in competition with m^7GTP and with capped RNA; also recorded: the binding site was saturated by the analog

Question: For `Cn1c[n+]([C@@H]2O[C@H](COP(=O)(O)OP(=O)([O-])O)[C@@H](O)[C@H]2O)c2nc(N)[nH]c(=O)c21` [m^7GDP, reference compound], which “effect on eIF-4E-dependent translation” value ([2]; added to incubation containing wild-type eIF-4E) is on record?
Answer: inhibited the eIF-4E-dependent translation

Question: For “wild-type eIF-4E: purified recombinant human eukaryotic Initiation Factor 4E expressed in E. coli, non-phosphorylated”, which “increase in the translation of globin mRNA” value ([2]; addition to eIF-4E-depleted lysate) is on record?
Answer: 2-4 fold

Question: What about the Kd ([3]; Kd for m^7GTP, fluorescence quenching, 25 C, read-out: Binding constant Kd) of the same molecule?
Answer: 140 nM

Question: What about the equilibrium binding constant ([3]; binding to m^7GTP, pH 7.6 (20 mM HEPES buffer+1 mM DTT), 25° C.) of the same molecule?
Answer: 10.1±0.3 ×10^5M^−1

Question: And the “equilibrium binding constant relative to results obtained using native human eIF-4E” value ([3]; compared with Carberry 1989)?
Answer: 1.5-2 times higher

Question: What about the binding constant ([3]; in vitro, worded as binding to m^7G-RNA) of the same molecule?
Answer: 10.1±0.3 ×10^5M^−1

Question: And the “fraction of eIF-4E expressed in E. coli that was soluble” value [4]?
Answer: Note: Approximately 1-5% of the eIF-4E expressed in E. coli was soluble as estimated by Coomassie blue staining of SDS-PAGE analyzed samples.
